Consider twelve compounds from US10508120B2, “TYK2 inhibitors and uses thereof” (Nimbus Lakshmi, Inc., priority 2017, dated 2019).

Some results are limits rather than exact numbers.

Assay [1] has as its target human TYK2 (JH2domain-pseudokinase) (Homo sapiens (Human), UniProt P29597). Kind of assay: TYK2 JH2 Domain Binding Assay (KINOMEscan). Put shortly:
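Competition binding of an NFkB-DBD fusion of human TYK2 JH2 (G556–D888), expressed in HEK293 and used as crude extract at <0.1 nM, against immobilized ligand beads; 1 h at room temperature in PBS/Tween/DTT/BSA buffer, 0.9% DMSO.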

Assay [2] concerns the target Tyk2 kinase domain (DH1) (Homo sapiens (Human), UniProt P29597). Description: Tyk2 Radioactive Kinase Assay. In kind it is biochemical. Conditions: for inhibition at 10 µM: compound at 10 μM, ATP 10 μM, read-out: Tyk2 JH1% Inhibition @ 10 μM. Put shortly:
(§1)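 Each kinase domain is incubated with test compound at 10 μM. Activity is then measured radiometrically and expressed as percent inhibition relative to uninhibited enzyme.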

Assay [3] addresses JAK2 kinase domain (JH1) (Homo sapiens (Human), UniProt O60674). Kind of assay: JAK2 Radioactive Kinase Assay. In kind it is biochemical. Conditions: for inhibition at 10 µM: compound at 10 μM, ATP 10 μM, read-out: JAK2 JH1% Inhibition @ 10 μM. In short, it runs like this: as §1
The target of assay [4] is Tyk2/JAK2 (heterodimeric complex) (Homo sapiens (Human), UniProt P29597). Kind of assay: IL-12 Induced pSTAT4 in Human PBMC. In kind it is cell-based. Conditions: 1.7 ng/mL IL-12. The text has this: The IL-12 Induced pSTAT4 assay evaluates the inhibition of IL-12 induced STAT4 phophorylation mediated by Tyk2/JAK2 (heterodimeric complex).
The target of assay [5] is JAK2/JAK2 homdimeric complex (Homo sapiens (Human), UniProt O60674). Kind of assay: GM-CSF Induced pSTAT5 in Human PBMC. In kind it is cell-based. The following applies: GM-CSF 5 ng/mL for 20 minutes, pSTAT5 by MSD, read-out: PBMC_GMCSF_pSTAT5 IC50.
Chain of JAK2/JAK2 homdimeric complex (O60674 whole entry): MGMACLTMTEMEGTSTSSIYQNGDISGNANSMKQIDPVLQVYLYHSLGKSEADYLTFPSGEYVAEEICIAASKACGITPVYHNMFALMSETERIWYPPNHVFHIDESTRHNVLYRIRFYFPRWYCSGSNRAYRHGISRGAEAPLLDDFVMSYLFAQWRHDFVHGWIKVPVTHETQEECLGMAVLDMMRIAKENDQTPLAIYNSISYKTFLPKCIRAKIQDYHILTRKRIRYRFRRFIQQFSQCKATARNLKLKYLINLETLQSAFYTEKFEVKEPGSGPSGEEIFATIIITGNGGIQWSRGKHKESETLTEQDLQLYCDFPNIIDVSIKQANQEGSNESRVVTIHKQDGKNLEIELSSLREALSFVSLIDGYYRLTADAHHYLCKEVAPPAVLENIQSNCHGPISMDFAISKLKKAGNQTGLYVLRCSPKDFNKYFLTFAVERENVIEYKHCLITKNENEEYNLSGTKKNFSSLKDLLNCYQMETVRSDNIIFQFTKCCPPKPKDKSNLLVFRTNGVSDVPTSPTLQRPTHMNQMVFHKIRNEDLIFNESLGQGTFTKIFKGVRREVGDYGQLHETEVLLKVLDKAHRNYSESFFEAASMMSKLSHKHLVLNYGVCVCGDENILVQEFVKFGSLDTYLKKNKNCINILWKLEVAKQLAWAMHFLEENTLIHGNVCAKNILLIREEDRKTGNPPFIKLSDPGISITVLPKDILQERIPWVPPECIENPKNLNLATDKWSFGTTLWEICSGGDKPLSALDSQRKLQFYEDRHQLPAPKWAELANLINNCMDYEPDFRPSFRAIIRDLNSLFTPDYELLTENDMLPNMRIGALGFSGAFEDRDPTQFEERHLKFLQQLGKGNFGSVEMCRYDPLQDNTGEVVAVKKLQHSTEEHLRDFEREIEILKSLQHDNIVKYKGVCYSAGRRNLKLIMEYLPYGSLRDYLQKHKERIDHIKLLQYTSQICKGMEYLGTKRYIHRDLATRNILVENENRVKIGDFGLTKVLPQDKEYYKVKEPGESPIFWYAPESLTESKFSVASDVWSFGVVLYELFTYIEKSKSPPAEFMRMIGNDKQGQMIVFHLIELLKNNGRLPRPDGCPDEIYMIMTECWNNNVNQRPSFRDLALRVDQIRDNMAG
Chain of JAK2/JAK2 homdimeric complex (P32927 17-897 partner): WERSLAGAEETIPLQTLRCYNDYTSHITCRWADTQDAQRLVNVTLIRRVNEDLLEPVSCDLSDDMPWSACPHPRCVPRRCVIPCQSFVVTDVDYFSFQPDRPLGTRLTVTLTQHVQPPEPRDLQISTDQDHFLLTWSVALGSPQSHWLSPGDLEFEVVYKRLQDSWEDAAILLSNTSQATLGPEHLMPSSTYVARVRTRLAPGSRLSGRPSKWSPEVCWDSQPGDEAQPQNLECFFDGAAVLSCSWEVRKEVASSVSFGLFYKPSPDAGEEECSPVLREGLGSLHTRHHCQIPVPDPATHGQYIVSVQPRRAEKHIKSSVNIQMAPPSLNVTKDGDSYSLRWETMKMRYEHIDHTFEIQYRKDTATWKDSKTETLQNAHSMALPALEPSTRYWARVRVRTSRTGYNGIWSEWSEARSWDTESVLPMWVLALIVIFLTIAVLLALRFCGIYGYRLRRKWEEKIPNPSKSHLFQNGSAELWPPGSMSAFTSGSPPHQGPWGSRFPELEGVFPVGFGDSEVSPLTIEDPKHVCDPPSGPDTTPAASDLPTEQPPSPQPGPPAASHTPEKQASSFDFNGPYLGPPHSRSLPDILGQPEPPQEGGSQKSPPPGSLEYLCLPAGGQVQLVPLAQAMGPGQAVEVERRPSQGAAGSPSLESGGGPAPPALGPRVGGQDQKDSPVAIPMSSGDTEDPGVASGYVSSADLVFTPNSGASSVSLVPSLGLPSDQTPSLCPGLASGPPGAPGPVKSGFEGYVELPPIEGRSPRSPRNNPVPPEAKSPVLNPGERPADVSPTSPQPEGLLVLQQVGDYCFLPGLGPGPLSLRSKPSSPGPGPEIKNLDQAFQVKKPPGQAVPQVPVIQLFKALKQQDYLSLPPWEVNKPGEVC

Chain of Tyk2/JAK2 (heterodimeric complex) (P29597 whole entry, other chains not shown): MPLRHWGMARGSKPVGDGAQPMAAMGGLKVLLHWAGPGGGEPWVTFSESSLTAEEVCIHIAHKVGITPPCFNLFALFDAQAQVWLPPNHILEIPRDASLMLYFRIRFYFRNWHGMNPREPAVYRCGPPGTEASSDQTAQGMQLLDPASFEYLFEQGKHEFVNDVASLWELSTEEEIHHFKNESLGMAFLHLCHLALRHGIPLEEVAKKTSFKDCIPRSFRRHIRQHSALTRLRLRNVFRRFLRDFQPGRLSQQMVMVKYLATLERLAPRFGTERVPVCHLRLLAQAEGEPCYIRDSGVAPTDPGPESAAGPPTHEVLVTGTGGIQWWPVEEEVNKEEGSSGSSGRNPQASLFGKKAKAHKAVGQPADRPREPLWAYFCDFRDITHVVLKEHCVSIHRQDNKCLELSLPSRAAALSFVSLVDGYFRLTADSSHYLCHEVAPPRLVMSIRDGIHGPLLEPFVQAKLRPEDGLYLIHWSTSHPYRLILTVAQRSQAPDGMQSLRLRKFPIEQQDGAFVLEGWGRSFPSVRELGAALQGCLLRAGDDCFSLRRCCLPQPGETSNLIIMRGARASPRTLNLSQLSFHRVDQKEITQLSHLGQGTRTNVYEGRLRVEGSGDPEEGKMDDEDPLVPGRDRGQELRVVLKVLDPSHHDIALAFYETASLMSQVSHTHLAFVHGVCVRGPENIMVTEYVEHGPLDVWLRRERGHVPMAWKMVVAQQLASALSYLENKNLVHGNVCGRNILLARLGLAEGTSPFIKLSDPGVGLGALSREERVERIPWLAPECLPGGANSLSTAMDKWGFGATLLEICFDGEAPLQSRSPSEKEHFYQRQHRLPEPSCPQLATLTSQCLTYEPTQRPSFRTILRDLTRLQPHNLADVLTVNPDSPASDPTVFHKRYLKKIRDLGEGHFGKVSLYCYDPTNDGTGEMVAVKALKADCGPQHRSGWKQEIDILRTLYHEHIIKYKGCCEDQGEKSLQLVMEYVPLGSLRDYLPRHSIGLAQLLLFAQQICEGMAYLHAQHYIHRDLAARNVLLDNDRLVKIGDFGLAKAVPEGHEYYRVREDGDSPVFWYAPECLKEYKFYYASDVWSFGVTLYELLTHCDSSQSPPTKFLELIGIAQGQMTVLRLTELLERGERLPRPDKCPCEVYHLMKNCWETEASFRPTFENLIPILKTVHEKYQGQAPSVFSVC
Chain of JAK2 kinase domain (JH1) (O60674 849-1124): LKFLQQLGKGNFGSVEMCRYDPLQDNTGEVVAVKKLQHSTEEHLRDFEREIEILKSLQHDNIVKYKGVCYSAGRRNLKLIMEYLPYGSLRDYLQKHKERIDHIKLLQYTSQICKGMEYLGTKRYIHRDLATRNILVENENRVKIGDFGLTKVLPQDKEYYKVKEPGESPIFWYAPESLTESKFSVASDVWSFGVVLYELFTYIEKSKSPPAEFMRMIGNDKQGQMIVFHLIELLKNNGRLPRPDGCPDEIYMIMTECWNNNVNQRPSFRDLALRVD
Chain of Tyk2 kinase domain (DH1) (P29597 897-1176): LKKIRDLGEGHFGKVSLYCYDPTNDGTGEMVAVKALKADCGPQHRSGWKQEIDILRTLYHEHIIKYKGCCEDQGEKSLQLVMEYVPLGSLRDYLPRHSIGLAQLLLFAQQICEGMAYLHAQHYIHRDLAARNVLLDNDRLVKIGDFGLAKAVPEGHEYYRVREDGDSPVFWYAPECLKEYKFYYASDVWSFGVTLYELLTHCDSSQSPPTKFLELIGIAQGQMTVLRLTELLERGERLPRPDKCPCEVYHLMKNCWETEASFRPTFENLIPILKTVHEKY
Chain of human TYK2 (JH2domain-pseudokinase) (P29597 556-888): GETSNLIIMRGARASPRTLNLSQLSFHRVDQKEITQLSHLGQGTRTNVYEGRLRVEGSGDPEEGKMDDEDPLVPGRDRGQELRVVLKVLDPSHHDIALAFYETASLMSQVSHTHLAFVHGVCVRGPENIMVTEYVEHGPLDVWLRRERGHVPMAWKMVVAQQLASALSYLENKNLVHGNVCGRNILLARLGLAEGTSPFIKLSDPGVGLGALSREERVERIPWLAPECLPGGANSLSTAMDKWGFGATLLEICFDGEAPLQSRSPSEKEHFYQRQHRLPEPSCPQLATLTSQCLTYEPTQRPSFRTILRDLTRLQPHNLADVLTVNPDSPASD

With `CNc1cc(Nc2cccnc2OC2CC2)nc2c(C(=O)NCC(C)(C)CO)cnn12` [I-350], the Kd in assay [1] is below 0.2 nM. The inhibition at 10 µM in assay [2] and in assay [3] was below 50% throughout. Moreover, the IC50 is below 100 nM in assay [4] and above 50000 nM in assay [5].

With `CNc1cc(Nc2cccnc2OC)nc2c(C(=O)NO)cnn12` [I-710, N-hydroxy-5-((2-methoxypyridin-3-yl)amino)-7-(methylamino)pyrazolo[1,5-a]pyrimidine-3-carboxamide], in assay [1], the Kd is below 0.2 nM. For the same compound, the inhibition at 10 µM in assay [2] and in assay [3] was below 50% each time. For the same compound, the figures for the IC50 in assay [4] and in assay [5] were 100 to 500 nM and above 50000 nM, respectively.

For `CNc1cc(Nc2cccn(C[C@@H]3CCCCO3)c2=O)nc2c(C(=O)N[C@@H]3C[C@@H]3F)cnn12` [I-428], the Kd in assay [1] is below 0.2 nM. Also, the inhibition at 10 µM in assay [2] and in assay [3] was below 50% each time. In addition, the IC50 was below 100 nM in assay [4] and above 50000 nM in assay [5].

Regarding `CNc1cc(Nc2cccn(-c3cc(C)on3)c2=O)nc2c(C(=O)N[C@H]3C[C@H]3F)cnn12` [I-161], in assay [1], the Kd is below 0.2 nM. Also, the inhibition at 10 µM in assay [2] and in assay [3] was below 50% throughout. For the same compound, the IC50 was below 100 nM in assay [4] and above 12500 nM in assay [5].

In turn, `CNc1cc(Nc2cccnc2OC2CC2)nc2c(C(=O)N[C@@H]3CC[C@@H]3O)cnn12` [I-401] yielded an equilibrium dissociation constant (Kd) in assay [1] below 0.2 nM. Also, the inhibition at 10 µM in assay [2] and in assay [3] was below 50% in each case. In addition, the IC50 was below 100 nM in assay [4] and above 12500 nM in assay [5].

`CNc1cc(Nc2cccn(-c3cnco3)c2=O)nc2c(C(=O)N[C@@H]3C[C@@H]3F)cnn12` [I-762] displayed a Kd in assay [1] below 0.2 nM. Moreover, the inhibition at 10 µM in assay [2] and in assay [3] was below 50% throughout. Moreover, the values for the IC50 in assay [4] and in assay [5] were below 100 nM and above 2500 nM, respectively.

Compound `CNc1cc(Nc2cccc(N3CCOCC3)n2)nc2c(C(=O)N[C@H]3C[C@H]3F)cnn12` [I-590] displayed a Kd in assay [1] below 0.2 nM. Also, the values for the inhibition at 10 µM in assay [2] and in assay [3] were below 50% and 50 to 70%, respectively. Further, the IC50 in assay [4] was below 100 nM; in assay [5], above 12500 nM.

Compound `CNc1cc(Nc2cccn(-c3ccccn3)c2=O)nc2c(C(=O)N[C@H]3CC[C@H]3O)cnn12` [I-805] showed an equilibrium dissociation constant (Kd) in assay [1] below 0.2 nM. Further, the inhibition at 10 µM in assay [2] and in assay [3] was below 50% throughout. For the same compound, the IC50 is below 100 nM in assay [4] and above 12500 nM in assay [5].

Compound `CCn1cc(Cl)cc(Nc2cc(NC)n3ncc(C(N)=O)c3n2)c1=O` [I-35] displayed a Kd in assay [1] below 0.2 nM. For the same compound, the inhibition at 10 µM in assay [2] and in assay [3] was below 50% in each case. Besides, the figures for the IC50 in assay [4] and in assay [5] were below 100 nM and above 300 nM, respectively.

In turn, `CNc1cc(Nc2cccn([C@H]3CC[C@](C)(OC)CC3)c2=O)nc2c(C(=O)N[C@@H]3CC[C@H]3OC)cnn12` [I-959] had a Kd in assay [1] below 0.2 nM. The “Tyk2 JH1% Inhibition @ 10 μM” value in assay [2] (10 μM compound, 10 μM ATP) is on record as “A (percent inhibition at 10 μM lower than 50)”. The “JAK2 JH1% Inhibition @ 10 μM” value in assay [3] (10 μM compound, 10 μM ATP) is “A (percent inhibition at 10 μM lower than 50)”. Moreover, the IC50 in assay [4] is below 100 nM; in assay [5], above 50000 nM.

On to `CNc1cc(Nc2cccn(-c3cccc(C)n3)c2=O)nc2c(C(=O)N[C@H]3C[C@H]3F)cnn12` [I-131], for which the Kd in assay [1] lay within 1 to 10 nM. Moreover, the inhibition at 10 µM in assay [2] and in assay [3] was below 50% in each case. For the same compound, the IC50 in assay [4] was below 100 nM; in assay [5] it was above 12500 nM.

`CNc1cc(Nc2cc(F)cn(-c3ccn(C)n3)c2=O)nc2c(C(=O)NC3CC3)cnn12` [I-378] displayed a Kd in assay [1] below 0.2 nM. Also, the inhibition at 10 µM in assay [2] and in assay [3] was below 50% throughout. Besides, the values for the IC50 in assay [4] and in assay [5] were below 100 nM and above 12500 nM, respectively.

Usually Kd stands for the free concentration of one partner at which half of the binding sites on the other are occupied at equilibrium, for simple one-to-one binding. Low readings indicate higher affinity, high ones lower affinity. The term inhibition denotes the drop in the measured response relative to a control, in per cent. As a reminder, the IC50 is the midpoint of a concentration-inhibition curve.
